Measurements as given in patent publication EP1129354B1, “A METHOD FOR DETERMINING A MIMOTOPE SEQUENCE” (PEPSCAN SYSTEMS B.V., priority 1998, dated 2000).

tested on: antibody; assay: Pepscan ELISA, replacement analyses of three leads and consensus (Example-6); format: binding; settings: value is the antibody concentration
Description: (§1) Lead peptides can also be derived from other type of libraries such as for example phage-display libraries.
(§2) In a replacement analysis the binding activity of complete series of substitutions analogs of lead peptides, in which each position is replaced by each of the other 19 natural L-amino acids, is investigated in detail. In addition, it is possible to use the 20 D-amino acids as well as other available non-natural amino acids. Substitutions that result in improved binding are combined into new sequences of building blocks. These new sequences are again tested in a 2nd replacement analysis. If necessary more rounds of replacement analyses are performed. After each round of a replacement analyses the antibody (or other soluble receptor) concentration can be lowered to obtain maximal binding activity (e.g. from 100 µg/ml to 0.01 µg/ml after 2 rounds of replacement-analyses, as shown in example-1).
(§3) Notes for the examples: • the 10 µg/ml, 1 µg/ml etc. denote the antibody concentration. • The line "improved position-01" etc. means that this change in amino acid (is underlined) improves binding activity in pepscan elisa at given antibody concentration. Positions that could not be improved are not mentioned (e.g. position-08 in first replacement-net of example-1, i.e. the original I at position 8 gives the highest activity).
In example-6, different lead peptides were used to identify a consensus sequence. Each lead peptide was used in multiple replacement analyses (two rounds).

Row | Substance | activity at
1 | AWWPSA | : activity at ≥ 5.0 µg/ml
2 | NVCHWS | : activity at ≥ 5.0 µg/ml
3 | NVCSWS | : activity at ≥ 10.0 µg/ml
4 | ANAPSA | : activity at ≥ 5.0 µg/ml
5 | KLITRW | : activity at ≥ 10.0 µg/ml
6 | NVCHWA | : activity at ≥0.5 µg/ml
7 | NVCSWA | : activity at ≥ 5.0 µg/ml
8 | YVCHWA | : activity at ≥ 0.1 µg/ml
9 | NICSWS | : activity at ≥ 5.0 µg/ml
10 | YICHWA | : activity at ≥0.5 µg/ml
11 | NICHWA | : activity at ≥ 1.0 µg/ml
12 | KLITRY | : activity at ≥ 5.0 µg/ml
13 | ANWSSA | : activity at ≥ 5.0 µg/ml
14 | SLITRW | : activity at ≥ 5.0 µg/ml
15 | HWASPA | : activity at ≥ 0.5 µg/ml
16 | KLATRW | : activity at ≥ 5.0 µg/ml
17 | ANWPSA | : activity at ≥ 10.0 µg/ml
18 | SSATRY | : activity at ≥ 1.0 µg/ml
19 | HNWPSA | : activity at ≥ 5.0 µg/ml
20 | YVCHWASSATRY | activity at 0.01 µg/ml
21 | KSITRW | : activity at ≥ 5.0 µg/ml

tested on: antibody; assay: Pepscan ELISA, replacement analyses (Example-2); format: binding; settings: value is the antibody concentration, antibody binds a non-linear epitope

Row | Substance | activity at
22 | KYFSSAMGAFKL | activity at ≥ 0.05 µg/ml
23 | KYFSSGMGAFKL | activity at ≥ 0.01 µg/ml
24 | HWASSAIGAFKL | activity at ≥ 1.0 µg/ml
25 | ANWPSAIGAFGL | activity at ≥ 10.0 µg/ml
26 | AWWPSAIGAFGL | activity at ≥ 5.0 µg/ml
27 | KYGSSGMGAFKL | activity at ≥ 0.05 µg/ml
28 | HNWPSAIGAFGL | activity at ≥ 5.0 µg/ml
29 | ANWSSAIGAFGL | activity at ≥ 5.0 µg/ml
30 | KYGSSAMGAFKL | activity at ≥ 0.1 µg/ml
31 | HWGSSAIGAFKL | activity at ≥ 0.5 µg/ml
32 | HYASSAIGAFKL | activity at ≥ 0.5 µg/ml
33 | HWASSAMGAFKL | activity at ≥ 0.5 µg/ml
34 | KWASSAIGAFKL | activity at ≥ 0.5 µg/ml
35 | ANWSSAIGAFKL | activity at ≥ 5.0 µg/ml
36 | ANAPSAIGAFGL | activity at ≥ 5.0 µg/ml

tested on: Monoclonal antibody 26/9; assay: PEPSCAN-based ELISA, binding of peptides to antibody 26/9 (Example-1); settings: value is the antibody 26/9 concentration at which the peptide shows binding activity in pepscan elisa

Row | Substance | activity at
37 | CGCAAMDIRCYA | activity at ≥ 10.0 µg/ml
38 | EMDEEEDVMNYA | activity at ≥ 0.1 µg/ml
39 | CGCAEMNIRCYA | activity at ≥ 10.0 µg/ml
40 | EMDEEEDIMDYA | activity at ≥ 0.1 µg/ml
41 | CGCAANINIMCYA | activity at ≥ 10.0 µg/ml
42 | EMDEEEDIPNYA | activity at ≥ 0.1 µg/ml
43 | EGCAAMNIRCYA | activity at ≥ 10.0 µg/ml
44 | CGCAAENIRCYA | activity at ≥ 10.0 µg/ml
45 | CGDAAMNIRCYA | activity at ≥ 10.0 µg/ml
46 | CGCAAMNIRNYA | activity at ≥ 10.0 µg/ml
47 | CMCAAMNIRCYA | activity at ≥ 10.0 µg/ml
48 | CGCEAMMIRCYA | activity at ≥ 10.0 µg/ml

tested on: antibody; assay: Pepscan ELISA, replacement analyses and lengthening (Example-4); format: binding; settings: value is the antibody concentration
Description: In addition to random minipepscan libraries mimotopes can also be identified from standard pepscan libraries. These libraries contain all overlapping 12-mers (or shorter/longer) covering the linear sequence of a known protein (Slootstra et al., 1995a).
as §2, §3
In example-4, a lead peptide was identified through standard pepscan analysis, i.e. the antibody was tested on all overlapping 12-mers covering the linear sequence of the protein. The following two rounds of replacement analyses were done as discussed in example-1. In addition, the mimotope was lengthened to the left and right (3 amino acids, this can be further lengthened) through additional replacement analyses.

Row | Substance | activity at
49 | KIWYPPIKLIRV | activity at ≥ 0.5 µg/ml
50 | IKLIRVNYRMQP [lengthened right] | activity at ≥ 1.0 µg/ml
51 | IKLIRVNYRCQP | activity at ≥ 0.5 µg/ml
52 | KIYYPPISLIRV | activity at ≥ 0.5 µg/ml
53 | RIYYPPIKLIRV | activity at ≥ 0.5 µg/ml
54 | KIYYPPIKLIRV [lengthened left] | activity at ≥ 1.0 µg/ml
55 | RPWYPPISLIRV [combination impr., replacement analysis-III] | activity at ≥ 0.1 µg/ml
56 | IKLIRVNYRCEN [combination impr., replacement analysis-IV] | activity at ≥ 0.1 µg/ml
57 | AVMIKLILVNFR | activity at ≥ 5.0 µg/ml
58 | KPYYPPIKLIRV | activity at ≥ 0.5 µg/ml
59 | AIMIKLILVNFR | activity at ≥ 5.0 µg/ml
60 | APPIKLIRVNYR | activity at ≥ 0.5 µg/ml
61 | YIPIKLIRVNYR | activity at ≥ 0.5 µg/ml
62 | IKLIRVNYRMQN | activity at ≥ 0.5 µg/ml
63 | AVMIKLIRVNFR | activity at ≥ 5.0 µg/ml
64 | RPWYPPISLIRVNYRCEN [combination total, 18-mer mimotope] | activity at ≥ 0.01 µg/ml
65 | IKLIRVNYRMEP | activity at ≥ 0.5 µg/ml
66 | YPPIKLIRVNYR | activity at ≥ 0.1 µg/ml
67 | AVMIKLILVNYR | activity at ≥ 5.0 µg/ml
68 | AVPIKLILVNFR | activity at ≥ 5.0 µg/ml
69 | RVMIKLILVNFR | activity at ≥ 10.0 µg/ml

tested on: antibody; assay: Pepscan ELISA, replacement analyses of consensus sequence (Example-5); format: binding; settings: value is the antibody concentration
Experimental: All 4550 dodecapeptides were ranked according to their binding activity. According to their ranking consensus sequences and motifs are identified. Initial methods of lead optimization that only use the sequence of the top 50 molecules have been described in Slootstra et al.(1995b; 1997). The present method uses all 4550 sequences. Firstly, the frequency and/or distribution of single amino acids and the dipeptide motifs OO, dipeptide motifs OXO and dipeptide motifs OXXO is determined using Microsoft Excel 4.0 (O, one of the 20 natural L-amino acids; X, any residue). Secondly, properties of the amino acids (hydrophobicity, charge etc.) are included in the analysis. […] This is done by substitution of building blocks that inhibit activity and include building blocks that improve binding activity.
as §2, §3
In example-5, a set of similar lead peptides were used to identify a consensus sequence. The consensus sequences were identified as discussed in materials and method. This sequence was used in the replacement analyses. ALIGNMENT OF LEAD PEPTIDES: • QNNMKLFRGCVP • RGIKWNEMTDQW • KLQQNPTFYPPV • TNNCKEFAGIVP • RGILTNIMKDQW • IVQNNPKFFRGA

Row | Substance | activity at
70 | ILTNNMGDWYG | activity at ≥ 0.01 µg/ml
71 | ILTNNMKDFRG | activity at ≥ 0.5 µg/ml
72 | ILTNNMPDWYG | activity at ≥ 0.05 µg/ml
73 | ILTNNMGDWRG | activity at ≥ 0.05 µg/ml
74 | ILQNNMKDFRG | activity at ≥ 1.0 µg/ml
75 | ILTNNMPDWRG | activity at ≥ 0.1 µg/ml
76 | ILQNNMKDWRG | activity at ≥ 0.5 µg/ml
77 | ILQNNMPDFRG | activity at ≥ 0.5 µg/ml

tested on: antibody; assay: Pepscan ELISA, lengthening and replacement analyses (Example-3); format: binding; settings: value is the antibody concentration
Description: as §1, §2, §3
In example-3, lead peptides were identified through phage-display. Adjacent cysteines/glycines were added to improve binding activity. After obtained activity multiple replacement analyses were done as discussed in example-1.

Row | Substance | activity at
78 | CYETKFGNG | activity at ≥ 0.05 µg/ml
79 | CSDTRYGCG | activity at ≥ 5.0 µg/ml
80 | CSDTHKGCG | activity at ≥ 5.0 µg/ml
81 | DYETKFGCG | activity at ≥ 0.05 µg/ml
82 | CSDTRKGC | activity at ≥ 10.0 µg/ml
83 | CTETKYGCG | activity at ≥ 0.5 µg/ml
84 | CYETHYGCG | activity at ≥ 0.5 µg/ml
85 | CYETKFGCG | activity at ≥ 0.1 µg/ml
86 | CSETRKGCG | activity at ≥ 5.0 µg/ml
87 | DYETKFGNG | activity at ≥ 0.01 µg/ml
88 | CTETHFGCG | activity at ≥ 0.5 µg/ml
89 | CTETHYGCG | activity at ≥ 1.0 µg/ml
90 | CTDTRKGCG | activity at ≥ 5.0 µg/ml
